Source: PubChem BioAssay AID1963837 (Molecular Pharmacology Branch, DTP, NCI, 2024)

Test system: 843126-344-R-J1-PDC complex spheroid viability
Test: Anticancer human tumor 843126-344-R-J1-PDC patient-derived melanoma cell line growth inhibition [POLQ]
Details: second compound 1 µM; first compound 0.1 µM; hits give low values
In short: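 Growth inhibition in 3D: complex spheroids (tumor PDC, HUVEC, MSC) treated with POLQ inhibitor combinations; where Cmax unknown, highest tested concentration 10 microM, except SN-38 at 1 microM.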
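Also: spheroids exposed to drugs for seven days before readout.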

Compound	viability, T/C [%]
O=c1[nH]cc(F)c(=O)[nH]1 + Cc1cccc(N(C)C(=O)C2C(O)CCN2c2nc(C)cc(C(F)(F)F)c2C#N)c1	88.6
C=CCn1c(=O)c2cnc(Nc3ccc(N4CCN(C)CC4)cc3)nc2n1-c1cccc(C(C)(C)O)n1 + COC1C(OC(N)=O)C(O)C(Oc2ccc3c(O)c(NC(=O)c4ccc(O)c(CC=C(C)C)c4)c(=O)oc3c2C)OC1(C)C	85.1
CCc1c2c(nc3ccc(O)cc13)-c1cc3c(c(=O)n1C2)COC(=O)[C@]3(O)CC + COC1C(OC(N)=O)C(O)C(Oc2ccc3c(O)c(NC(=O)c4ccc(O)c(CC=C(C)C)c4)c(=O)oc3c2C)OC1(C)C	70.6
O=c1[nH]cc(F)c(=O)[nH]1 + Nc1ccc(C#CCN(C(=O)Cc2ncc(C(F)(F)F)cc2C(F)(F)F)c2ccc(F)cc2)nn1	107
COc1cc2cc(C(=O)CCC(=O)O)sc2cc1OC + COC1C(OC(N)=O)C(O)C(Oc2ccc3c(O)c(NC(=O)c4ccc(O)c(CC=C(C)C)c4)c(=O)oc3c2C)OC1(C)C	92.7

Same assay, conditions: second compound 1 µM; first compound 0.316 µM; hits give low values

Compound	viability, T/C [%]
COc1cc(C2c3cc4c(cc3C(OC3OC5COC(C)OC5C(O)C3O)C3COC(=O)C23)OCO4)cc(OC)c1O (configuration not stated) + Nc1ccc(C#CCN(C(=O)Cc2ncc(C(F)(F)F)cc2C(F)(F)F)c2ccc(F)cc2)nn1	80.5
COc1cccc(OCCCN)c1-c1cc(Nc2cnc(C#N)cn2)n[nH]1 + Nc1ccc(C#CCN(C(=O)Cc2ncc(C(F)(F)F)cc2C(F)(F)F)c2ccc(F)cc2)nn1	43.8
O=c1[nH]cc(F)c(=O)[nH]1 + Cc1cccc(N(C)C(=O)C2C(O)CCN2c2nc(C)cc(C(F)(F)F)c2C#N)c1	107
C=CCn1c(=O)c2cnc(Nc3ccc(N4CCN(C)CC4)cc3)nc2n1-c1cccc(C(C)(C)O)n1 + COC1C(OC(N)=O)C(O)C(Oc2ccc3c(O)c(NC(=O)c4ccc(O)c(CC=C(C)C)c4)c(=O)oc3c2C)OC1(C)C	84.2
CCc1c2c(nc3ccc(O)cc13)-c1cc3c(c(=O)n1C2)COC(=O)[C@]3(O)CC + COC1C(OC(N)=O)C(O)C(Oc2ccc3c(O)c(NC(=O)c4ccc(O)c(CC=C(C)C)c4)c(=O)oc3c2C)OC1(C)C	48.6
O=c1[nH]cc(F)c(=O)[nH]1 + Nc1ccc(C#CCN(C(=O)Cc2ncc(C(F)(F)F)cc2C(F)(F)F)c2ccc(F)cc2)nn1	108
COc1cc2cc(C(=O)CCC(=O)O)sc2cc1OC + COC1C(OC(N)=O)C(O)C(Oc2ccc3c(O)c(NC(=O)c4ccc(O)c(CC=C(C)C)c4)c(=O)oc3c2C)OC1(C)C	87.3

Same assay, conditions: second compound 1 µM; first compound 1 µM; hits give low values

Compound	viability, T/C [%]
COc1cc(C2c3cc4c(cc3C(OC3OC5COC(C)OC5C(O)C3O)C3COC(=O)C23)OCO4)cc(OC)c1O (configuration not stated) + Nc1ccc(C#CCN(C(=O)Cc2ncc(C(F)(F)F)cc2C(F)(F)F)c2ccc(F)cc2)nn1	71.6
COc1cccc(OCCCN)c1-c1cc(Nc2cnc(C#N)cn2)n[nH]1 + Nc1ccc(C#CCN(C(=O)Cc2ncc(C(F)(F)F)cc2C(F)(F)F)c2ccc(F)cc2)nn1	29.3
O=c1[nH]cc(F)c(=O)[nH]1 + Cc1cccc(N(C)C(=O)C2C(O)CCN2c2nc(C)cc(C(F)(F)F)c2C#N)c1	110
C=CCn1c(=O)c2cnc(Nc3ccc(N4CCN(C)CC4)cc3)nc2n1-c1cccc(C(C)(C)O)n1 + COC1C(OC(N)=O)C(O)C(Oc2ccc3c(O)c(NC(=O)c4ccc(O)c(CC=C(C)C)c4)c(=O)oc3c2C)OC1(C)C	76.9
CCc1c2c(nc3ccc(O)cc13)-c1cc3c(c(=O)n1C2)COC(=O)[C@]3(O)CC + COC1C(OC(N)=O)C(O)C(Oc2ccc3c(O)c(NC(=O)c4ccc(O)c(CC=C(C)C)c4)c(=O)oc3c2C)OC1(C)C	40.5
O=c1[nH]cc(F)c(=O)[nH]1 + Nc1ccc(C#CCN(C(=O)Cc2ncc(C(F)(F)F)cc2C(F)(F)F)c2ccc(F)cc2)nn1	89.5
COc1cc2cc(C(=O)CCC(=O)O)sc2cc1OC + COC1C(OC(N)=O)C(O)C(Oc2ccc3c(O)c(NC(=O)c4ccc(O)c(CC=C(C)C)c4)c(=O)oc3c2C)OC1(C)C	85.6

Same assay, conditions: second compound 1 µM; first compound 3.16 µM; hits give low values

Compound	viability, T/C [%]
COc1cc(C2c3cc4c(cc3C(OC3OC5COC(C)OC5C(O)C3O)C3COC(=O)C23)OCO4)cc(OC)c1O (configuration not stated) + Nc1ccc(C#CCN(C(=O)Cc2ncc(C(F)(F)F)cc2C(F)(F)F)c2ccc(F)cc2)nn1	64.3
O=c1[nH]cc(F)c(=O)[nH]1 + Cc1cccc(N(C)C(=O)C2C(O)CCN2c2nc(C)cc(C(F)(F)F)c2C#N)c1	113
O=c1[nH]cc(F)c(=O)[nH]1 + Nc1ccc(C#CCN(C(=O)Cc2ncc(C(F)(F)F)cc2C(F)(F)F)c2ccc(F)cc2)nn1	94.3
COc1cc2cc(C(=O)CCC(=O)O)sc2cc1OC + COC1C(OC(N)=O)C(O)C(Oc2ccc3c(O)c(NC(=O)c4ccc(O)c(CC=C(C)C)c4)c(=O)oc3c2C)OC1(C)C	96

Same assay, conditions: second compound 1 µM; first compound 10 µM; hits give low values

Compound	viability, T/C [%]
COc1cc(C2c3cc4c(cc3C(OC3OC5COC(C)OC5C(O)C3O)C3COC(=O)C23)OCO4)cc(OC)c1O (configuration not stated) + Nc1ccc(C#CCN(C(=O)Cc2ncc(C(F)(F)F)cc2C(F)(F)F)c2ccc(F)cc2)nn1	53.5
O=c1[nH]cc(F)c(=O)[nH]1 + Cc1cccc(N(C)C(=O)C2C(O)CCN2c2nc(C)cc(C(F)(F)F)c2C#N)c1	96.5
O=c1[nH]cc(F)c(=O)[nH]1 + Nc1ccc(C#CCN(C(=O)Cc2ncc(C(F)(F)F)cc2C(F)(F)F)c2ccc(F)cc2)nn1	90.6
COc1cc2cc(C(=O)CCC(=O)O)sc2cc1OC + COC1C(OC(N)=O)C(O)C(Oc2ccc3c(O)c(NC(=O)c4ccc(O)c(CC=C(C)C)c4)c(=O)oc3c2C)OC1(C)C	87.2

Same assay, conditions: second compound 3.16 µM; first compound 0.00316 µM; hits give low values

Compound	viability, T/C [%]
COc1cccc(OCCCN)c1-c1cc(Nc2cnc(C#N)cn2)n[nH]1 + Nc1ccc(C#CCN(C(=O)Cc2ncc(C(F)(F)F)cc2C(F)(F)F)c2ccc(F)cc2)nn1	87.2
C=CCn1c(=O)c2cnc(Nc3ccc(N4CCN(C)CC4)cc3)nc2n1-c1cccc(C(C)(C)O)n1 + COC1C(OC(N)=O)C(O)C(Oc2ccc3c(O)c(NC(=O)c4ccc(O)c(CC=C(C)C)c4)c(=O)oc3c2C)OC1(C)C	83.6
CCc1c2c(nc3ccc(O)cc13)-c1cc3c(c(=O)n1C2)COC(=O)[C@]3(O)CC + COC1C(OC(N)=O)C(O)C(Oc2ccc3c(O)c(NC(=O)c4ccc(O)c(CC=C(C)C)c4)c(=O)oc3c2C)OC1(C)C	66.9

Same assay, conditions: second compound 3.16 µM; first compound 0.01 µM; hits give low values

Compound	viability, T/C [%]
COc1cccc(OCCCN)c1-c1cc(Nc2cnc(C#N)cn2)n[nH]1 + Nc1ccc(C#CCN(C(=O)Cc2ncc(C(F)(F)F)cc2C(F)(F)F)c2ccc(F)cc2)nn1	74.6
C=CCn1c(=O)c2cnc(Nc3ccc(N4CCN(C)CC4)cc3)nc2n1-c1cccc(C(C)(C)O)n1 + COC1C(OC(N)=O)C(O)C(Oc2ccc3c(O)c(NC(=O)c4ccc(O)c(CC=C(C)C)c4)c(=O)oc3c2C)OC1(C)C	106
CCc1c2c(nc3ccc(O)cc13)-c1cc3c(c(=O)n1C2)COC(=O)[C@]3(O)CC + COC1C(OC(N)=O)C(O)C(Oc2ccc3c(O)c(NC(=O)c4ccc(O)c(CC=C(C)C)c4)c(=O)oc3c2C)OC1(C)C	63.7

Same assay, conditions: second compound 3.16 µM; first compound 0.0316 µM; hits give low values

Compound	viability, T/C [%]
COc1cc(C2c3cc4c(cc3C(OC3OC5COC(C)OC5C(O)C3O)C3COC(=O)C23)OCO4)cc(OC)c1O (configuration not stated) + Nc1ccc(C#CCN(C(=O)Cc2ncc(C(F)(F)F)cc2C(F)(F)F)c2ccc(F)cc2)nn1	88.3
COc1cccc(OCCCN)c1-c1cc(Nc2cnc(C#N)cn2)n[nH]1 + Nc1ccc(C#CCN(C(=O)Cc2ncc(C(F)(F)F)cc2C(F)(F)F)c2ccc(F)cc2)nn1	44.3
O=c1[nH]cc(F)c(=O)[nH]1 + Cc1cccc(N(C)C(=O)C2C(O)CCN2c2nc(C)cc(C(F)(F)F)c2C#N)c1	99.3
C=CCn1c(=O)c2cnc(Nc3ccc(N4CCN(C)CC4)cc3)nc2n1-c1cccc(C(C)(C)O)n1 + COC1C(OC(N)=O)C(O)C(Oc2ccc3c(O)c(NC(=O)c4ccc(O)c(CC=C(C)C)c4)c(=O)oc3c2C)OC1(C)C	98.5
